This is an account of results in ChEMBL document CHEMBL1201862, “PubChem BioAssay data set” (2004).

Calls of active or inactive are those of the source.

Experiment [1] concerns the target Paired box protein Pax-8 (Homo sapiens, UniProt Q06710). Put plainly: PAX8 transcriptional activity inhibition in RMG-I – RMG-I cells, luciferase, cherry-pick, dose response (AID 687027).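 Also: luciferase reporter driven by Pax8 target thyroperoxidase promoter measured by SteadyGlo luminescence.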 Type of experiment: functional, cell-based.
Experiment [2] is described as follows: A2780 cell killing – plate reader, dry powder samples, cytotoxicity control, dose response (AID 743046). Type of experiment: functional, cell-based.
Experiment [3] can be described thus: OVCAR-3 cell viability loss – plate reader, dry powder samples, PAX8 inhibitor project, dose response (AID 743044). It is filed as functional, cell-based.
The nature of experiment [4]: OVCAR8 cell viability loss – plate reader, dry powder samples, PAX8 project, dose response (AID 743197). Type of experiment: functional, cell-based. The settings on record: OVCAR-8.
The nature of experiment [5]: YAP1 overexpression rescue of CTGF inhibition – DLD1 cells, RT-qPCR, cherry-pick, mechanism study for YAP1 pathway inhibitor project, dose response (AID 1053127). Type of experiment: functional, cell-based. The settings on record: DLD-1. (In general: In qPCR the cycle at which signal appears reflects the starting amount.)
The nature of experiment [6]: CTGF mRNA reduction in DLD1 cells – cell-based, DLD1 colon cancer, RT-qPCR, cherry-pick, dose response (AID 1053122). The settings on record: Cancer cell lines. Type of experiment: functional.
A short description of experiment [7]: luciferase reporter signal suppression in cells – H4 neuroglioma cells, luminescence, dose response (AID 1990). It is filed as functional, cell-based. (In general: Reporter assays use an easily measured gene product as a stand-in for the process of interest.)
Experiment [8] can be described thus: luciferase reporter signal reduction – luminescence, H4-C neuroglioblastoma cells, dose response (AID 2458).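 Also: H4 neuroglioblastoma cells stably carrying a luciferase reporter gene fusion.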 It is filed as functional, cell-based.
Experiment [9] can be described thus: cells. It is filed as functional, cell-based.
Experiment [10] can be described thus: Luminescence Cell-Based Dose Response HTS to Identify Inhibitors of 5'UTR Stem-Loop Driven Prion Protein mRNA Translation in H4 Neuroglioblastoma Cells. [Related pubchem assays: 1827 (Project Summary), 1813 (Primary HTS)]. It is filed as functional.
Experiment [11] in a line: alpha-synuclein stem-loop luciferase translation blockers – H4 neuroglioma cells, luminescence, confirmation (AID 1988). It is filed as functional, cell-based.
The nature of experiment [12]: Luminescence-based counterscreen assay for KLF5 inhibitors: dose response cell-based high throughput screening assay to identify cytotoxic compounds using the IEC-6 intestinal epithelial cell line. [Related pubchem assays: 1700 (Primary screen.), 1834 (Confirmation screen.), 1858 (Summary AID.), 1905 (Counterscreen.)]. It is filed as functional. A general note: A counterscreen serves to expose hits that act by an unwanted route or on another target.

Experiment [13] is described as follows: alpha-synuclein stem-loop translation blockers – luminescence, H4 neuroglioblastoma cells, dose confirmation, confirmation (AID 2454).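 Also: H4 neuroglioblastoma cells carrying an alpha-synuclein 5'UTR luciferase reporter; potency for inhibition of the luciferase signal.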 Type of experiment: functional, cell-based.
Experiment [14] can be described thus: HEK-293T cell viability reduction – luminescence, B-cell screen hits, cytotoxicity control for BCR NF-kB inhibitor project, dose response (AID 489021).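 Also: HEK-293T cells carrying an NF-kB luciferase reporter; cells exposed to compound for about 14 hours before viability readout.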 Type of experiment: functional, cell-based.
The subject of experiment [15] is H4. Nature of the experiment: inhibitors of control reporter signal in H4 cells – cell-based, plate reader, dry powder samples, counter-screen for prion reporter project, dose response (AID 540255). Type of experiment: functional. The following applies: Homo sapiens.
In experiment [16] the test system is H4. Put plainly: Inhibitors of Prion Protein 5' UTR mRNA Measured in Cell-Based System Using Plate Reader - 2078-01_Inhibitor_Dose_DryPowder_Activity. [Related pubchem assays (depositor defined):AID488894]. It is filed as functional. The following applies: Homo sapiens.
Experiment [17] can be described thus: reduction of Shn3 3'UTR-driven luciferase in osteoblasts – cell-based, Clone20 osteoblasts, firefly luciferase, cherry-picked, dose response (AID 624132).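 Also: firefly luciferase luminescence from reporter carrying the Shn3 3'UTR in osteoblasts.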 It is filed as functional.
Experiment [18] can be described thus: inhibitors acting on PAX2 in cells – cell-based, plate reader, dry powder samples, selectivity assay for PAX8 inhibitor project, dose response (AID 743048).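 Also: HEK293 cells carrying a WT1 promoter luciferase reporter driven by expressed Pax2; potency is for inhibition of Pax2 driven reporter signal.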 It is filed as functional.
A short description of experiment [19]: COV362 cell viability loss – plate reader, dry powder, SA12, cytotoxicity control for PAX8 inhibitor project, dose response (AID 743144). It is filed as functional, cell-based.
Experiment [20] can be described thus: Shn3 3'UTR reporter signal decrease – cell-based, Clone20 osteoblasts, firefly luciferase, cherry-pick, set 2, Schnurri-3 inhibitor project, dose response (AID 720490).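 Also: actives lower the luminescence signal as inhibitors.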 It is filed as functional.
Experiment [21] can be described thus: PAX5 cellular inhibition readout – cell-based, plate reader, dry powder samples, selectivity assay for PAX8 inhibitor project, dose response (AID 743047).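 Also: HEK293 cells carrying a Pax5 driven CD19 promoter luciferase reporter; potency of inhibitors that lower reporter luminescence.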 Type of experiment: functional.
Experiment [22] in a line: PAX8-dependent cell viability loss – plate reader, dry powder, dose response (AID 743049). Type of experiment: functional, cell-based.
The nature of experiment [23]: blockers of FN fibrillogenesis by fibroblasts – AH1F cells, Alexa488-FN fluorescence, cherry-picks, dose response (AID 1035475). Type of experiment: functional, cell-based.
The nature of experiment [24]: toxicity toward immortalized ovarian surface epithelium – cell-based, plate reader, dry powder samples, cytotoxicity control for PAX8 inhibitor project, dose response (AID 743045). Type of experiment: functional.
Experiment [25] can be described thus: general cell-killing toxicity readout – plate reader, dry powder samples, cytotoxicity control for PAX8 inhibitor project, dose response (AID 743021). It is filed as functional, cell-based.
Experiment [26] relates to Streptococcus sp. 'group A'. Put plainly: Streptococcus pyogenes SK(-)GAS viability under kanamycin – luminescence, BacTiterGlo, confirmation, counter-screen for streptokinase expression inhibitor project, dose response (AID 1900). Type of experiment: functional, organism-based.
Experiment [27] addresses T1, Streptokinase A (Streptococcus pyogenes serotype M1, UniProt P10520).
T1 sequence (P10520 whole entry): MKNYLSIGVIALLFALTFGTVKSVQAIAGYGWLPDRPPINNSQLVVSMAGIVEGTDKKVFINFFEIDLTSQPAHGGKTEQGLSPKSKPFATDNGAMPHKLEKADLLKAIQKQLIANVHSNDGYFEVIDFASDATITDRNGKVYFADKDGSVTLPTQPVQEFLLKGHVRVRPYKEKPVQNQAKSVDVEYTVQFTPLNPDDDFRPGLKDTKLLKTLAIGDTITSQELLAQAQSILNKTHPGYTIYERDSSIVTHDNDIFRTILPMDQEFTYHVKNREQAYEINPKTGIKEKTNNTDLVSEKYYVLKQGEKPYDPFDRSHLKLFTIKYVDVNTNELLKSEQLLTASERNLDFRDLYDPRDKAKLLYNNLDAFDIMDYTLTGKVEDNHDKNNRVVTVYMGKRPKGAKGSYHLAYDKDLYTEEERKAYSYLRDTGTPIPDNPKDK
Put plainly: viability-normalized secreted streptokinase activity reduction – plasminogen activation absorbance, OD405, dose response (AID 1914).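 Also: secreted streptokinase activity via plasminogen activation per viability signal from cell pellet.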 It is filed as functional, Streptococcus pyogenes M1 GAS.

In experiment [28] the test system is Streptococcus. Put plainly: GAS UMAA2166 growth inhibition – luminescence, BacTiterGlo, counter-screen for streptokinase expression inhibitor project, dose response (AID 1915).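 Also: potency for reduction of bacterial viability or growth.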 Type of experiment: functional, organism-based.
Experiment [29] deals with Disintegrin and metalloproteinase domain-containing protein 17 (Homo sapiens, UniProt P78536). Put plainly: inhibition of ADAM17 substrate cleavage – biochemical, quenched FRET substrate, counter-screen for ADAM10 exosite inhibitor project, dose response (AID 743253).
Chain of Disintegrin and metalloproteinase domain-containing protein 17 (P78536 whole entry, the tested form may be a part): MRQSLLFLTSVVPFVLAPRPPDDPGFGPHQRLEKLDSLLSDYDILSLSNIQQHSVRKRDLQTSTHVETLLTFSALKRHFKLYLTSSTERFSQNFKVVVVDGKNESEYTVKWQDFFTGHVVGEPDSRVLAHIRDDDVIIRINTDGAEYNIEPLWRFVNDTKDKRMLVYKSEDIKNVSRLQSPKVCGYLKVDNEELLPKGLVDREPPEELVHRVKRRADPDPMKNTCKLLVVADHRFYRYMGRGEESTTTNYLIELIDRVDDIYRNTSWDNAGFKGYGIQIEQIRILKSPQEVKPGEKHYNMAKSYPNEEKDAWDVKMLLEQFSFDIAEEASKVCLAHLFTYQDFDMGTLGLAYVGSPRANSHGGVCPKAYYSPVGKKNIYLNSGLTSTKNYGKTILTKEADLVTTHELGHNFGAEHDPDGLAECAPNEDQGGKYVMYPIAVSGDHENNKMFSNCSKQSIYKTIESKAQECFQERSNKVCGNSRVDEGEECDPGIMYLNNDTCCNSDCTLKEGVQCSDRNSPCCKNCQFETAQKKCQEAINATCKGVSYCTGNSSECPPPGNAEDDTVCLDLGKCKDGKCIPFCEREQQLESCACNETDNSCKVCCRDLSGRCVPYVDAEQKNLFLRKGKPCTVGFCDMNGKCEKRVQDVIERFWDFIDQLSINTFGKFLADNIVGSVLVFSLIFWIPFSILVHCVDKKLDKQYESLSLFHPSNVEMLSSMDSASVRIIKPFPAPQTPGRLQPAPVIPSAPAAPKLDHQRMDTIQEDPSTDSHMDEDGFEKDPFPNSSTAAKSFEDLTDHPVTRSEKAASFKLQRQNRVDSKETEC
Experiment [30] in a line: liver cell line viability loss – HepG2, luminescence plate reader, powder samples, set 2, cytotoxicity control, dose response (AID 651860). It is filed as functional, cell-based.

Chain of Paired box protein Pax-8 (Q06710 whole entry): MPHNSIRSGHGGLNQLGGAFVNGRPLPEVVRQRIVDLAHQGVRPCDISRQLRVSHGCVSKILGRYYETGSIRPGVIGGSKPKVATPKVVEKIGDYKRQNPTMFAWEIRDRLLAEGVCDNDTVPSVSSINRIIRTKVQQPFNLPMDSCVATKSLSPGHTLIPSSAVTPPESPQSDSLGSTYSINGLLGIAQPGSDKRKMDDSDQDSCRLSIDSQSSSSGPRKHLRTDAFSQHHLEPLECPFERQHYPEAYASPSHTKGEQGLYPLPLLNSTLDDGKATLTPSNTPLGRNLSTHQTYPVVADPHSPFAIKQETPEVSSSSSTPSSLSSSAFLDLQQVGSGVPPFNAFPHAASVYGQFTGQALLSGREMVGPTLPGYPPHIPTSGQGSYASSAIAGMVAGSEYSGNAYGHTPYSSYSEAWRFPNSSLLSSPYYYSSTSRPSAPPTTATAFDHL

`Cc1cccc(S(=O)(=O)N2C[C@@H](O)COC[C@@H]3O[C@@H](CC(=O)Nc4ccc(-c5ccccc5)cc4)CC[C@H]32)c1`: the AC50 (as a rule, the midpoint of the concentration-response curve, whichever way the signal moves) in [1] is 10.7 µM (active); in [2], 23.2 µM (active); in experiment [3], 43.4 µM (active); in experiment [4] it was 53.1 µM (active).
As for `COc1cccc(-c2ccc([C@H]3[C@H]4CN(C(=O)Cc5ccncc5)CCCCN4[C@H]3CO)cc2)c1`, the AC50 in experiment [5] was 9.34 µM (active); in experiment [6], 2.79 µM (active).
On to `O=C(CN1C(=O)c2ccccc2S1(=O)=O)c1ccc(Cl)cc1Cl`, for which the EC50 (as a rule, the concentration needed to bring the measured effect to its halfway point) was 0.31 µM (active) in experiment [7]; 0.595 µM (active) in experiment [8]; 0.794 µM (active) in [9]; < 0.1 µM (active) in experiment [10]; < 0.1 µM (active) in experiment [11]; 0.774 µM (active) in [13]. Besides, the half-inhibitory concentration (IC50) (commonly the concentration that gives 50% inhibition) in experiment [12] was > 39.8 µM (not active); in [14] it was > 80 µM (inactive). Moreover, the concentration at half-maximal activity (AC50) in experiment [15] was 0.456 µM (active); in [16] it was 0.168 µM (active); in [17], 3.53 µM (active); in experiment [1], 2.93 µM (active); in experiment [18] it was 1.18 µM (active); in experiment [19], 93.5 µM (active). The figures for the AC50 in [20], in experiment [21] and in [22] were 5.38 µM (active), 1.37 µM (active) and 88.1 µM (active), respectively.
In the case of `C[C@@H]1CN([C@H](C)CO)C(=O)c2cccc(NC(=O)Nc3ccc(C(F)(F)F)cc3)c2O[C@H]1CN(C)C(=O)Nc1cccc2ccccc12`, the AC50 in experiment [23] was 57.7 µM (active).
For `COc1ccccc1C#Cc1ccc([C@H]2[C@H](C#N)N(C(=O)C3CCC3)[C@H]2CO)cc1`, the half-maximal activity concentration (AC50) is 5.55 µM (active) in experiment [1]; 56.5 µM (active) in experiment [24]; 12.6 µM (active) in [3]; 32.8 µM (active) in experiment [25]; 23.4 µM (active) in [4].
Turning to `CCCN(CC(=O)Nc1cc(Cl)cc(Cl)c1)CC(=O)Nc1ccc(F)c(F)c1F`, the figures for the EC50 in experiment [26], in experiment [27] and in experiment [28] were 1.77 µM (active), 1.48 µM (active) and 10.4 µM (active), respectively. Also, the IC50 in [29] was > 69.5 µM (inactive).
Take `Cc1cc(C)c(S(=O)(=O)Nc2cc(C(C(=O)OC(C)C)C(=O)C(F)(F)F)c(O)c3ccccc23)c(C)c1` (centres undefined): in [30], the AC50 is > 52 µM (inactive).
